These results are taken from US20230220047A1, “PEPTIDES FOR TREATMENT OF SEPSIS AND CANCER” (NORWEGIAN UNIVERSITY OF SCIENCE AND TECHNOLOGY (NTNU), priority 2020, published 2023).

The test system of series [1] is primary Vk*MYC multiple myeloma cells. Description: Primary Vk*MYC multiple myeloma cells. The class given is cell-based, mouse. The conditions noted are these: 7.5 or 15 μM, 48 h. How it is done:
Isolated primary cells were seeded then incubated for 48 hours in growth medium supplemented with water, penetratin, P7-Pen, P7-A4-Pen or P7-N4-Pen, then counted. Peptides were included at concentrations of 7.5 or 15 μM. […] Results are based on 3 biological replicates, error bars show standard deviation of mean.
Multiple myeloma cells JJN-3 (DSMZ (Germany) no. ACC 541), ANBL-6 (Cellosaurus accession number CVCL_5425, obtained from Dr Diane Jelinek, Mayo Clinic, Rochester, Minn.), INA-6 (Cellosaurus accession number CVCL_5209, obtained from Dr M. Gramatzki, University of Erlangen-Nurnberg, Erlangen, Germany), RPMI-8226 (ATCC CCL-155), and IH-1 (Cellosaurus accession number CVCL_WZ44, established from the pleural effusion of a myeloma patient by Myeloma research group, IKOM, NTNU, Trondheim, Norway) were grown in RPMI-1640 (Sigma-Aldrich Norway, Oslo, Norway) supplemented with 100 nM penicillin/streptomycin and 10% FCS, and for ANBL-6, IH-1 and INA-6 cells 2 ng/ml recombinant IL-6 (Gibco, Thermo Fisher Scientific, Waltham, Mass., USA). Murine multiple myeloma Vk*MYC cells were obtained from M.D. Leif Bergsagel (Mayo Clinic, Richester, Minn., USA) and cultured in RPMI-1640 supplemented with 2% human serum (B^+, The blood bank, St Olav's Hospital, Trondheim, Norway), 100 nM penicillin/streptomycin, L-Glutamine (2 mM) and recombinant IL-6 (1 ng/ml). HEK293T (ATCC CRL-3216) were cultured in DMEM with 10% FCS. THP-1 TRAM knockout (KO) and TLR4 KO cell lines, and matching lentivirally transduced control cell lines, were differentiated in the same way as wild type (WT) THP-1. TRAM KO THP-1 cell line is described in Yurchenko et al. (supra).
Primary multiple myeloma cells were isolated from Vk*Myc mice and provided by the Multiple Myeloma Research Group, IKOM, NTNU. The peptides P7-Pen, P7-N4-Pen and P7-A4-Pen were applied to the cultured primary cells and effect of the peptides on cell growth analysed as previously.

Series [2] concerns ANBL-6 multiple myeloma cells. Description: CellTiter-Glo cell viability assay, ANBL-6. The class given is cell-based. The conditions noted are these: for anti-proliferative activity over a concentration series: 5, 10, 12.5, 15, 20 and 30 μM or 5, 10 and 20 μM. (ATP-based viability assays read luminescence as a measure of living cells.)
A further series has as its system TLR4. Description: qPCR of TLR4-mediated cytokine expression in B6 immortalised murine macrophages. The conditions noted are these: 10 μM, 1 h pre-treatment, LPS 100 ng/ml. The class given is cell-based, mouse. How it is done:
Cells were pre-treated with 10 μM peptides in cell culture media for 1 h, and stimulated with LPS (100 ng/ml) for increasing lengths of time.
Immortalized bone-derived-macrophages (iBMDM) from wild type, Tram−/− or TIr4−/− C57BL/6 mice were maintained at 37° C. and 5% CO2 in DMEM supplemented with 10% FCS.
Total RNA was isolated from the cells using Qiazol reagent #79306 from QIAGEN, and chloroform extraction followed by purification on RNeasy Mini columns with DNAse digestion (Qiagen). cDNA was prepared using the Maxima First Strand cDNA Synthesis Kit for quantitative real-time polymerase chain reaction (RT-qPCR) (Thermo Fisher Scientific) according to the manufacturer's protocol. qPCR was performed using the PerfeCTa qPCR FastMix (Quanta Biosciences) in replicates and cycled in a StepOnePlus™ Real-Time PCR cycler. The following TaqMan® Gene Expression Assays (Applied Biosystems®) were used: IFNβ (Hs01077958_s1), TNF (Hs00174128_m1), TBP (Hs00427620_m1), CXCL10 (Hs01124251_g1), IL-6 (Hs00174131_m1) and IL-1β (Hs01555410_m1), for human cells; Ifnβ (Mm00439552_s1), Tnf (Mm00443258_m1), Tbp (Mm01277042_m1) and II-1β (Mm00434228_m1), for mouse cells. No RT controls were negative. The level of TBP mRNA was used for normalisation and results presented as relative expression compared to the control untreated sample. Relative expression was calculated using Pfaffl's mathematical model (Pfaffl, Nucleic Acids Research 29(9): e45, 2001). Results are presented as the mean and SD expression fold change for biological replicates relative to non-stimulated cells. Statistical significance was evaluated in GraphPad Prizm 5.03. Data distribution was assumed to be normal but this was not formally tested. The difference between the two groups was determined by two-tailed t test.
We proceeded with cellular assays to address the effect of peptide pre-treatment on TLR4-mediated cytokine expression in B6 immortalised murine macrophages (FIG. 13). Tested peptides had no cytotoxic effect on B6 murine macrophages (FIG. 13A).

For “Ac-ITVAASVTLTGRQIKIWFQNRRMKWKK-NH2 [Peptide P7-A4-Pen]”, the “effect on primary multiple myeloma cells” value in series [1] is “strong cytotoxic effect”. The “effect on proliferation of ANBL-6 cells” value in series [2] (15 μM) is “anti-proliferative effect”. Also, the “anti-proliferative activity over a concentration series” value in series [2] (48 h) is “clear concentration-dependent effect”. Moreover, the cell proliferation entry in series [2] (ANBL-6, 10 μM, 48 h) is “strongly inhibited cell proliferation”. In addition, the “cytotoxic activity (cell numbers below number seeded)” value in series [2] (higher concentrations, 48 h) is “cytotoxic activity”. Also, the “TLR4-mediated Ifnβ, Tnf and Il-1β mRNA expression” value in the series on TLR4 is listed as “strongly inhibited”.
In the case of “Ac-ITVYASVTLTGRQIKIWFQNRRMKWKK-NH2 [Peptide P7-Pen]”, the “effect on primary multiple myeloma cells” value in series [1] is given as “strong cytotoxic effect”. Moreover, in series [2] (48 h), the “anti-proliferative activity over a concentration series” value is listed as “essentially no anti-proliferative effect”. Besides, the “TLR4-mediated Ifnβ, Tnf and Il-1β mRNA expression” value in the series with TLR4 is listed as “strongly inhibited”.
